Key:
Type in all cases: cell-based
[1] = target: T1, Cloned human M1 receptor (CHRM1) (Homo sapiens, UniProt P11229); experiment: CHRM1 Ca++ Flux Assay (HEK293 M1 cells, agonist mode); conditions: for Emax: Percent Activity (PA), read-out: M1 FDSS PA %; for EC50: geometric mean if tested more than once, read-out: M1 FDSS EC50
T1 construct: expressed in transfected cells; host or cells: HEK293
T1 sequence (P11229 1-460): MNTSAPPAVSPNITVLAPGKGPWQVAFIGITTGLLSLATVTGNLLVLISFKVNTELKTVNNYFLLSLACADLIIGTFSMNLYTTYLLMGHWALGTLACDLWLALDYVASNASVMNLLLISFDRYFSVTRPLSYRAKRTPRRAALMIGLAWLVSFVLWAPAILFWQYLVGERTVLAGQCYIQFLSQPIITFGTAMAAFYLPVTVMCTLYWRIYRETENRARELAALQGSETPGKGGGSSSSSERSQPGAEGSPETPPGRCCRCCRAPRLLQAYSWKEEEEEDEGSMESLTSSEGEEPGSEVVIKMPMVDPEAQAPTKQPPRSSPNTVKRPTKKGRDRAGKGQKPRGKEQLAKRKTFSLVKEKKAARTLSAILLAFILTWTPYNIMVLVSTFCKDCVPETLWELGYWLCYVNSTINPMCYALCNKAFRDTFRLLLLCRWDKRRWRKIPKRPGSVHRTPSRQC
Outline: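 HEK293 cells stably expressing human M1 were loaded with Ca++ dye, then given compounds (11-point dose, triplicate) in HBSS −Ca/−Mg, 20 mM HEPES. Ca++ flux was read over 3 min (agonist mode). Four-parameter curves were fitted, with activity as percent of carbachol EC100.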

[2] = target: T2, human cloned CHRM3 receptor (Homo sapiens, UniProt P20309); experiment: CHRM3 Ca++ Flux Assay (M3_CHO cells, agonist mode); conditions: for Emax: Percent Activity (PA) measured to EC100 of Carbachol, read-out: M3 FDSS PA %; for EC50: agonist mode, geometric mean if tested more than once, read-out: M3 FDSS EC50
T2 construct: expressed in transfected cells; host or cells: CHO-K1 (M3_CHO)
T2 sequence (P20309 whole entry): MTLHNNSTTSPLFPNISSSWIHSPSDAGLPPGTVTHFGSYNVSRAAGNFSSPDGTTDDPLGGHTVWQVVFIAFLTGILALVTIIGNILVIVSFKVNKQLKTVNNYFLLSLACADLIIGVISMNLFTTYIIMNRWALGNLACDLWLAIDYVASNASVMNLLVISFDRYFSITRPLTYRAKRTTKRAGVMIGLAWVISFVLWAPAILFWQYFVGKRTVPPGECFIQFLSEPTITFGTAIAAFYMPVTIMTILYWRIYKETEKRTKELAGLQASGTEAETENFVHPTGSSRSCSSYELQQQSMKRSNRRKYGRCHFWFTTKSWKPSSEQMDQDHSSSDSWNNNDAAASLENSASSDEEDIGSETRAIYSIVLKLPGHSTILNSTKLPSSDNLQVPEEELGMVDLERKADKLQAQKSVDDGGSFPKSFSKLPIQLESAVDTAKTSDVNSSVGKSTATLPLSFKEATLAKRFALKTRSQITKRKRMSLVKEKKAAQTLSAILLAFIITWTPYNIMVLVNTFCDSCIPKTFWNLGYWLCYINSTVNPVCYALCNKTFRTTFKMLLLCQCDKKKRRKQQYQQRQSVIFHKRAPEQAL
Outline: (§1)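 CHO-K1 cells stably expressing human M3 or M5 receptor, dye-loaded ≥1 h, treated with 11-point compound doses in triplicate; Ca++ flux read over 3 min (FDSS). Agonist-mode four-parameter fit; percent activity relative to carbachol EC100; repeat tests reported as geometric mean.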

[3] = target: T3, human cloned CHRM5 receptor (Homo sapiens, UniProt P08912); experiment: CHRM5 Ca++ Flux Assay (M5_CHO cells, agonist mode); conditions: for Emax: Percent Activity (PA) measured to EC100 of Carbachol, read-out: M5 FDSS PA %; for EC50: agonist mode, geometric mean if tested more than once, read-out: M5 FDSS EC50
T3 construct: expressed in transfected cells; host or cells: CHO (M5_CHO)
T3 sequence (P08912 1-532): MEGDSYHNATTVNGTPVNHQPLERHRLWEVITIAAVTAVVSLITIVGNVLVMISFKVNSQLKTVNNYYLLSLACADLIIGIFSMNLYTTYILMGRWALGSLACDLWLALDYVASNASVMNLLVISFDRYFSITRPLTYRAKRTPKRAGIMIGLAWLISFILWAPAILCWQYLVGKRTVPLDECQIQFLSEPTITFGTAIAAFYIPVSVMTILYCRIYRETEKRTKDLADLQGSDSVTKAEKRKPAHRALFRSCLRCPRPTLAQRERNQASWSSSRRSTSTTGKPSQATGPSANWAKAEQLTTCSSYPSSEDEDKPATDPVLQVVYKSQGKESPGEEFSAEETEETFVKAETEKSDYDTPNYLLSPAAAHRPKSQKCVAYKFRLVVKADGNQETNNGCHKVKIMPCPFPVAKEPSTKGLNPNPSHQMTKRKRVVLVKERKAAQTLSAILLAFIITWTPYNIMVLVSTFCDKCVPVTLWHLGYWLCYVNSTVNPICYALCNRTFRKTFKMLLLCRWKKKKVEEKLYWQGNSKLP
Outline: as §1

Row | SMILES | Emax [1] [%] | EC50 [1] [µM] | Emax [2] [%] | EC50 [2] [µM] | Emax [3] [%] | EC50 [3] [µM]
1 | Fc1cc(OCC2(F)COC2)c(C2CCN([C@@H]3COC4(C3)CN(c3ncco3)C4)CC2)cc1F [Example 4P, (S)-7-(4-(4,5-difluoro-2-((3-fluorooxetan-3-yl)methoxy)phenyl)piperidin-1-yl)-2-(oxazol-2-yl)-5-oxa-2-azaspiro[3.4]octane] | 89 | 0.334 | 0 | > 25 | 0 | > 25
2 | Fc1cc(OC2COC2)c(C2CCN([C@@H]3COC4(C3)CN(c3ncco3)C4)CC2)cc1F [Example 4Q, (S)-7-(4-(4,5-difluoro-2-(oxetan-3-yloxy)phenyl)piperidin-1-yl)-2-(oxazol-2-yl)-5-oxa-2-azaspiro[3.4]octane] | 71 | 0.294 | 0 | > 25 | 0 | > 25
3 | c1ccc(C2CCN([C@@H]3COC4(C3)CN(c3ncco3)C4)CC2)c(-c2cncnc2)c1 [Example 4R, (S)-2-(oxazol-2-yl)-7-(4-(2-(pyrimidin-5-yl)phenyl)piperidin-1-yl)-5-oxa-2-azaspiro[3.4]octane] | 95 | 0.128 | 0 | > 25 | 0 | > 25
4 | Fc1ccc(C2CCN([C@@H]3COC4(C3)CN(c3ncco3)C4)CC2)c(OC2COC2)c1 [Example 4S, (S)-7-(4-(4-fluoro-2-(oxetan-3-yloxy)phenyl)piperidin-1-yl)-2-(oxazol-2-yl)-5-oxa-2-azaspiro[3.4]octane] | 89 | 0.624 | 0 | > 25 | 0 | > 25
5 | c1ccc(C2CCN([C@@H]3COC4(C3)CN(c3ncco3)C4)CC2)c(C2CCOCC2)c1 [Example 4V, (S)-2-(oxazol-2-yl)-7-(4-(2-(tetrahydro-2H-pyran-4-yl)phenyl)piperidin-1-yl)-5-oxa-2-azaspiro[3.4]octane] | 72 | 1.99 | 0 | > 25 | 0 | > 25
6 | Fc1ccc(C2CCOCC2)c(C2CCN([C@@H]3COC4(C3)CN(c3ncco3)C4)CC2)c1 [Example 4W, (S)-7-(4-(5-fluoro-2-(tetrahydro-2H-pyran-4-yl)phenyl)piperidin-1-yl)-2-(oxazol-2-yl)-5-oxa-2-azaspiro[3.4]octane] | 74 | 1.09 | 0 | > 25 | 0 | > 25
7 | COc1ccc(Cl)cc1C1CCN([C@@H]2COC3(C2)CN(c2ncns2)C3)CC1 [Example 5A, (S)-7-(4-(5-chloro-2-methoxyphenyl)piperidin-1-yl)-2-(1,2,4-thiadiazol-5-yl)-5-oxa-2-azaspiro[3.4]octane] | 70 | 0.63 | 0 | > 25 | 0 | > 25
8 | COc1ccccc1C1CCN([C@@H]2COC3(C2)CN(c2ncns2)C3)CC1 [Example 5B, (S)-7-(4-(2-methoxyphenyl)piperidin-1-yl)-2-(1,2,4-thiadiazol-5-yl)-5-oxa-2-azaspiro[3.4]octane] | 22 | 1.57 | 0 | > 25 | 0 | > 25
9 | COc1cc(F)ccc1C1CCN([C@@H]2COC3(C2)CN(c2ncns2)C3)CC1 [Example 5E, (S)-7-(4-(4-fluoro-2-methoxyphenyl)piperidin-1-yl)-2-(1,2,4-thiadiazol-5-yl)-5-oxa-2-azaspiro[3.4]octane] | 29 | 2.58 | 0 | > 25 | 0 | 13

The remaining lines, values ahead:

Row | Emax [1] [%] | EC50 [1] [µM] | Emax [2] [%] | EC50 [2] [µM] | Emax [3] [%] | EC50 [3] [µM] | SMILES
10 | 60 | 1.6 | 0 | > 25 | 4 | > 25 | CC(C)(O)COc1ccc(F)cc1C1CCN([C@@H]2COC3(C2)CN(c2ncns2)C3)CC1 [Example 5C, (S)-1-(2-(1-(2-(1,2,4-thiadiazol-5-yl)-5-oxa-2-azaspiro[3.4]octan-7-yl)piperidin-4-yl)-4-fluorophenoxy)-2-methylpropan-2-ol]
11 | 60 | 1.15 | 0 | > 25 | 0 | > 25 | COCCOc1ccc(F)cc1C1CCN([C@@H]2COC3(C2)CN(c2ncns2)C3)CC1 [Example 5D, (S)-7-(4-(5-fluoro-2-(2-methoxyethoxy)phenyl)piperidin-1-yl)-2-(1,2,4-thiadiazol-5-yl)-5-oxa-2-azaspiro[3.4]octane]
12 | 106 | 0.011 | 15 | 11.8 | 35 | 2.53 | Cc1nc(COc2ccccc2C2CCN([C@@H]3COC4(C3)CN(c3nncs3)C4)CC2)no1 [Example 5F, (S)-7-(4-(2-((5-methyl-1,2,4-oxadiazol-3-yl)methoxy)phenyl)piperidin-1-yl)-2-(1,3,4-thiadiazol-2-yl)-5-oxa-2-azaspiro[3.4]octane]
13 | 88 | 0.311 | 0 | > 25 | 0 | > 25 | Fc1ccc(OC2COC2)c(C2CCN([C@@H]3COC4(C3)CN(c3nncs3)C4)CC2)c1 [Example 5G, (S)-7-(4-(5-fluoro-2-(oxetan-3-yloxy)phenyl)piperidin-1-yl)-2-(1,3,4-thiadiazol-2-yl)-5-oxa-2-azaspiro[3.4]octane]
14 | 67 | 0.432 | 0 | > 25 | 0 | > 25 | Fc1ccc(O[C@@H]2CCOC2)c(C2CCN([C@@H]3COC4(C3)CN(c3nncs3)C4)CC2)c1 [Example 5H, (S)-7-(4-(5-fluoro-2-(((R)-tetrahydrofuran-3-yl)oxy)phenyl)piperidin-1-yl)-2-(1,3,4-thiadiazol-2-yl)-5-oxa-2-azaspiro[3.4]octane]
15 | 69 | 0.775 | 0 | > 25 | 0 | > 25 | Fc1ccc(OC[C@@H]2CCOC2)c(C2CCN([C@@H]3COC4(C3)CN(c3nncs3)C4)CC2)c1 [Example 5I, (S)-7-(4-(5-fluoro-2-(((R)-tetrahydrofuran-3-yl)methoxy)phenyl)piperidin-1-yl)-2-(1,3,4-thiadiazol-2-yl)-5-oxa-2-azaspiro[3.4]octane]
16 | 6 | 1.2 | 0 | > 25 | 0 | > 25 | Fc1ccc(OC2CCOCC2)c(C2CCN([C@@H]3COC4(C3)CN(c3nncs3)C4)CC2)c1 [Example 5J, (S)-7-(4-(5-fluoro-2-((tetrahydro-2H-pyran-4-yl)oxy)phenyl)piperidin-1-yl)-2-(1,3,4-thiadiazol-2-yl)-5-oxa-2-azaspiro[3.4]octane]
17 | 96 | 0.434 | 0 | > 25 | 0 | 6.64 | Fc1ccc(OC[C@H]2COCCO2)c(C2CCN([C@@H]3COC4(C3)CN(c3nncs3)C4)CC2)c1 [Example 5K, (S)-7-(4-(2-(((R)-1,4-dioxan-2-yl)methoxy)-5-fluorophenyl)piperidin-1-yl)-2-(1,3,4-thiadiazol-2-yl)-5-oxa-2-azaspiro[3.4]octane]
18 | 88 | 0.37 | 0 | > 25 | 0 | > 25 | Fc1ccc(OC[C@@H]2COCCO2)c(C2CCN([C@@H]3COC4(C3)CN(c3nncs3)C4)CC2)c1 [Example 5L, (S)-7-(4-(2-(((S)-1,4-dioxan-2-yl)methoxy)-5-fluorophenyl)piperidin-1-yl)-2-(1,3,4-thiadiazol-2-yl)-5-oxa-2-azaspiro[3.4]octane]

From patent US11485742B2, “2-azaspiro[3.4]octane derivatives as M4 agonists” (NOVARTIS AG, priority 2019, dated 2022)
